Drawing on ChEMBL document CHEMBL4665817, “Immobilized Metal Affinity Chromatography as a Drug Discovery Platform for Metalloenzyme Inhibitors” (J Med Chem, 2020), this text covers Activity and Ratio for 13 compounds.

Common to all, as to details: dose 2.55 µmol
Test [1] can be described thus: Binding affinity to Zinc ion at 2.55 umol in presence of DTT by immobilized metal-ion affinity chromatography.
Test [2] is described as follows: Binding affinity to Zinc ion assessed as performance ratio ratio by measuring product of accounting ratio and retention ratio at 2.55 umol by immobilized metal-ion affinity chromatography.
Test [3] can be described thus: Binding affinity to Nickel cation assessed as performance ratio ratio by measuring product of accounting ratio and retention ratio at 2.55 umol by immobilized metal-ion affinity chromatography.
Test [4] in a line: Binding affinity to Nickel cation assessed as retention ratio by measuring compound detected in elution fraction/total compound detected at 2.55 umol by immobilized metal-ion affinity chromatography.
The nature of test [5]: Binding affinity to Nickel cation assessed as accounting ratio by measuring total compound detected/total compound adsorbed at 2.55 umol by immobilized metal-ion affinity chromatography.
A short description of test [6]: Binding affinity to Gallium ion assessed as performance ratio ratio by measuring product of accounting ratio and retention ratio at 2.55 umol by immobilized metal-ion affinity chromatography.
A short description of test [7]: Binding affinity to Gallium ion assessed as retention ratio by measuring compound detected in elution fraction/total compound detected at 2.55 umol by immobilized metal-ion affinity chromatography.
Test [8] can be described thus: Binding affinity to gallium ion assessed as accounting ratio by measuring total compound detected/total compound adsorbed at 2.55 umol by immobilized metal-ion affinity chromatography.
Test [9] is described as follows: Binding affinity to Ferric ion assessed as performance ratio ratio by measuring product of accounting ratio and retention ratio at 2.55 umol by immobilized metal-ion affinity chromatography.
The nature of test [10]: Binding affinity to Ferric ion assessed as retention ratio by measuring compound detected in elution fraction/total compound detected at 2.55 umol by immobilized metal-ion affinity chromatography.
The nature of test [11]: Binding affinity to cupric ion assessed as performance ratio ratio by measuring product of accounting ratio and retention ratio at 2.55 umol by immobilized metal-ion affinity chromatography.
Test [12] can be described thus: Binding affinity to cupric ion assessed as retention ratio by measuring compound detected in elution fraction/total compound detected at 2.55 umol by immobilized metal-ion affinity chromatography.
The nature of test [13]: Binding affinity to cupric ion assessed as accounting ratio by measuring total compound detected/total compound adsorbed at 2.55 umol by immobilized metal-ion affinity chromatography.
The nature of test [14]: Binding affinity to zinc ion assessed as accounting ratio by measuring total compound detected/total compound adsorbed at 2.55 umol by immobilized metal-ion affinity chromatography.
Test [15] in a line: Binding affinity to Zinc ion assessed as retention ratio by measuring compound detected in elution fraction/total compound detected at 2.55 umol by immobilized metal-ion affinity chromatography.
Test [16] in a line: Binding affinity to ferric ion assessed as accounting ratio by measuring total compound detected/total compound adsorbed at 2.55 umol by immobilized metal-ion affinity chromatography.

Molecules are shown by their SMILES. Active and inactive are the calls of the source. No cut-off for these calls is given here.

In the case of `C[C@H](CSS[C@@H](Cc1ccccc1)C(=O)N[C@H]1CCS[C@H]2CCC[C@@H](C(=O)O)N2C1=O)C(=O)N1CCC[C@H]1C(=O)O`, the result in test [1] was inactive.
On to `C[C@H](CSSC[C@@H](C)C(=O)N1CCC[C@H]1C(=O)O)C(=O)N1CCCC1C(=O)O` (stereo partly drawn), for which the result in test [1] was inactive.
On the same count and under the same terms, next, `O=C(N[C@H]1CCS[C@H]2CCC[C@@H](C(=O)O)N2C1=O)[C@H](Cc1ccccc1)SS[C@@H](Cc1ccccc1)C(=O)N[C@H]1CCS[C@H]2CCC[C@@H](C(=O)O)N2C1=O`: “inactive”.
For `O=C(CCCCCCC(=O)Nc1ccccc1)NO`, the Ratio in [2] is 1.19; in test [3], 1.14; in test [4] it was 1; in test [5] it was 1.14; in [6], 0.41; in [7] it was 1. Further, the Ratio in test [8] turned out to be 0.41; in test [9], 0; in test [10] it was 0; in [11] it was 0.08; in test [12], 0.61; in test [13] it was 0.14. Further, the Ratio is 1.19 in [14], 1 in test [15] and 0 in [16].
`O=C(O)c1cc(/N=N/c2ccc(S(=O)(=O)Nc3ccccn3)cc2)ccc1O`: the Ratio in [2] was found to be 0.48; in test [3], 0.89; in test [4], 1; in test [5], 0.89; in test [6], 0.82; in test [7] it was 0.99. Besides, the Ratio in test [8] came to 0.83; in test [9] it was 0.79; in test [10] it was 1; in [11] it was 0.63; in [12], 0.63; in [13], 1. Also, the Ratio in [14] was found to be 0.61; in test [15], 0.79; in test [16] it was 0.79.
In the case of `CC1(C)Cc2c(-c3ccccc3)c(-c3ccc(Cl)cc3)c(CC(=O)O)n2C1`, the Ratio in [2] turned out to be 0.03; in test [3], 0.03; in [4], 0.03; in test [5], 1.03; in [6], 0.06; in test [7], 0.06. The Ratio in test [8] is 1.08; in [9], 0.37; in test [10] it was 0.39; in [11] it was 0; in test [12] it was 0; in test [13], 1.03. Moreover, the Ratio in [14] stood at 1.05; in [15], 0.03; in test [16], 0.97.
Take `C[C@H](N[C@@H](CCc1ccccc1)C(=O)O)C(=O)N1CCC[C@H]1C(=O)O`: the Ratio in test [2] is 0.01; in [3] it was 0; in test [4], 0; in test [5] it was 0.81; in test [6], 0; in test [7], 0. Further, the Ratio in [8] came out at 1; in test [9] it was 0; in test [10], 0; in test [11], 0; in [12] it was 0; in [13], 0.99. Also, the Ratio was found to be 0.98 in test [14], 0.01 in test [15] and 1.02 in test [16].
For `Cc1[nH]c2ccccc2c1CCNCc1ccc(/C=C/C(=O)NO)cc1`, the Ratio in test [2] stood at 0.7; in [3] it was 0.84; in test [4] it was 1; in [5], 0.84; in test [6], 0; in test [7], 0. In addition, the Ratio in test [8] came out at 0; in test [9] it was 0.03; in test [10], 1; in test [11], 0.25; in test [12] it was 1; in test [13], 0.25. Besides, the values for the Ratio in test [14], in [15] and in test [16] were 0.7, 1 and 0.03, respectively.
Turning to `O=c1cccccc1O`, the Ratio came out at 0.97 in test [2]; 0.7 in [3]; 1 in test [4]; 0.7 in [5]; 0 in test [6]; 0 in test [7]. Also, the Ratio amounted to 0 in test [8]; 0 in test [9]; 0 in [10]; 1.26 in test [11]; 1 in [12]; 1.26 in test [13]. Besides, the Ratio in [14] stood at 0.97; in [15], 1; in test [16] it was 0.
As for `Cc1ccc(Cl)c(Nc2ccccc2C(=O)O)c1Cl`, the Ratio in test [2] stood at 0; in test [3] it was 0; in test [4], 0; in [5], 0.96; in [6], 0; in test [7], 0. The Ratio is 1.01 in [8]; 0 in test [9]; 0 in test [10]; 0 in test [11]; 0 in test [12]; 1.05 in test [13]. For the same compound, the Ratio in test [14] was found to be 0.97; in [15], 0; in [16], 0.99.
As for `O=C(N[C@H]1CCS[C@H]2CCC[C@@H](C(=O)O)N2C1=O)[C@@H](S)Cc1ccccc1`, the Ratio worked out at 1.43 in test [2]; 0.19 in test [3]; 1 in test [4]; 0.19 in [5]; 0 in test [6]; 0 in [7]. Besides, the Ratio in [8], in [9], in test [10], in test [11], in test [12] and in [13] was 0 each time. The Ratio was determined as 1.43 in test [14], 1 in [15] and 0 in test [16].
With `Nc1ccc(C(=O)O)c(O)c1`, the Ratio amounted to 0 in test [2]; 0 in test [3]; 0 in test [4]; 0.83 in [5]; 0.52 in test [6]; 0.74 in [7]. Also, the Ratio in test [8] came out at 0.69; in test [9], 0.08; in test [10], 0.51; in [11], 0; in [12] it was 0; in test [13], 0.87. Also, the Ratio in [14] worked out at 0.87; in test [15], 0; in test [16] it was 0.15.
For the compound `C[C@H](CS)C(=O)N1CCC[C@H]1C(=O)O`, the Ratio is 1.17 in test [2]; 0 in [3]; 0 in test [4]; 0 in test [5]; 0 in test [6]; 0 in test [7]. The Ratio in test [8], in [9], in test [10], in test [11], in test [12] and in [13] was 0 throughout. For the same compound, the Ratio in [14] came to 1.17; in [15] it was 1; in test [16] it was 0.
